Data as given in patent publication US20230081426A1, “COMPOUNDS AND METHODS FOR KRAS MODULATION AND INDICATIONS THEREFOR” (Plexxikon Inc., priority 2020, published 2023).
Read-outs that look alike come from different tables or passages of the source.

Experiments:
[1] = target: T1, G12D-mutant human KRAS (amino acid residues 1-188) (Homo sapiens, UniProt P01116, G12D); assay: KRAS Binding Disruption Assay (AlphaScreen; biotinylated KRpep-2d analogue or RAF1-RBD), G12D; settings: for IC50: geometric mean, read-out: KRAS GMean IC50 (uM) MUTATION: G12D
T1 construct: G12D or G12C-mutant human KRAS (amino acid residues 1-188) with FLAG tag; made in house; host or cells: E. coli
Method in brief: (§1)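 Compounds are titrated against 5-20 nM mutant KRAS and 5-20 nM of either a biotinylated KRpep-2d analogue or RAF1-RBD, incubated 1 h at 25° C. Disruption is detected as reduced Alpha signal after 1 h with donor and acceptor beads at 10 μg/mL.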

[2] = target: T2, G12C-mutant human KRAS (amino acid residues 1-188) (Homo sapiens, UniProt P01116, G12C); assay: KRAS Binding Disruption Assay (AlphaScreen; biotinylated KRpep-2d analogue or RAF1-RBD), G12C; settings: geometric mean, read-out: KRAS GMean IC50 (uM) MUTATION: G12C
T2 construct: G12D or G12C-mutant human KRAS (amino acid residues 1-188) with FLAG tag; made in house; host or cells: E. coli
Method in brief: as §1

T2 sequence (P01116 1-188 isoform P01116-2 G12C): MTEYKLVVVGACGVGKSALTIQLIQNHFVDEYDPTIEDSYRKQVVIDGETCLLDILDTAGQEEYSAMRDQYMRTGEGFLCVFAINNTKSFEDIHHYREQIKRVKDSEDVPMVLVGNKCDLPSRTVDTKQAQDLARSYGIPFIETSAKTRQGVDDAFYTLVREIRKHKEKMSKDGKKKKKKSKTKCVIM
T1 sequence (P01116 1-188 isoform P01116-2 G12D): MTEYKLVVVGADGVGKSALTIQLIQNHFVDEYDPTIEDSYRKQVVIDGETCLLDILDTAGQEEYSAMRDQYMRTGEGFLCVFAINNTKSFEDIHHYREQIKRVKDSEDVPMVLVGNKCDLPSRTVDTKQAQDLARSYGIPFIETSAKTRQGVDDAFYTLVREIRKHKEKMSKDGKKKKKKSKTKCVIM

| Structure (SMILES) | IC50 ([1]; KRAS G12D) [µM] | IC50 [2] [µM] | Improved KRAS G12D Biochemical Potency of Compounds with Bridged vs Non-Bridged R^1 Groups ([1]; Table 4, fold more potent than the compared compound of WO 2017/172979) | IC50 ([1]; Table 4, comparison with compounds of WO 2017/172979) [µM] |
| --- | --- | --- | --- | --- |
| CN1CCC[C@H]1COc1nc(N2C[C@H]3CC[C@@H](C2)N3)c2ccc(-c3cccc4cccc(Cl)c34)c(F)c2n1 [P-0782, 4-((1R,5S)-3,8-diazabicyclo[3.2.1]octan-3-yl)-7-(8-chloronaphthalen-1-yl)-8-fluoro-2-(((S)-1-methylpyrrolidin-2-yl)methoxy)quinazoline] | 0.0001 to 10 | 10 to 100 | – | – |
| Fc1c(-c2c[nH]c3cccc(F)c23)c(Cl)cc2c(N3C[C@H]4CC[C@@H](C3)N4)nc(OCC34CCCN3CCC4)nc12 [P-0809, 4-((1R,5S)-3,8-diazabicyclo[3.2.1]octan-3-yl)-6-chloro-8-fluoro-7-(4-fluoro-1H-indol-3-yl)-2-((tetrahydro-1H-pyrrolizin-7a(5H)-yl)methoxy)quinazoline] | 0.0001 to 10 | 10 to 100 | – | – |
| CNC(=O)COc1nc(N2C[C@H]3CC[C@@H](C2)N3)c2ccc(-c3cc(O)cc4ccccc34)c(F)c2n1 [P-0733, 2-((4-((1R,5S)-3,8-diazabicyclo[3.2.1]octan-3-yl)-8-fluoro-7-(3-hydroxynaphthalen-1-yl)quinazolin-2-yl)oxy)-N-methylacetamide] | 0.0001 to 10 | 10 to 100 | – | – |
| Oc1cc(-c2ccc3c(N4C[C@H]5CC[C@@H](C4)N5)nc(OCC4(O)CCC4)nc3c2F)c2ccccc2c1 [P-0722, 4-(4-((1R,5S)-3,8-diazabicyclo[3.2.1]octan-3-yl)-8-fluoro-2-((1-hydroxycyclobutyl)methoxy)quinazolin-7-yl)naphthalen-2-ol] | 0.0001 to 10 | 10 to 100 | – | – |
| CC(C)(O)C1CN(c2nc(N3C[C@H]4CC[C@@H](C3)N4)c3ccc(-c4cc(O)cc5ccccc45)c(F)c3n2)C1 [P-0683, 4-(4-((1R,5S)-3,8-diazabicyclo[3.2.1]octan-3-yl)-8-fluoro-2-(3-(2-hydroxypropan-2-yl)azetidin-1-yl)quinazolin-7-yl)naphthalen-2-ol] | 0.0001 to 10 | 100 to 1000 | – | – |
| OCC1(COc2nc(N3C[C@H]4CC[C@@H](C3)N4)c3ccc(-c4cc(O)cc5ccccc45)c(F)c3n2)CCC1 [P-0651, 4-(4-((1R,5S)-3,8-diazabicyclo[3.2.1]octan-3-yl)-8-fluoro-2-((1-(hydroxymethyl)cyclobutyl)methoxy)quinazolin-7-yl)naphthalen-2-ol] | 0.0001 to 10 | 0.0001 to 10 | – | – |
| Oc1cc(-c2ccc3c(N4C[C@H]5CC[C@@H](C4)N5)nc(CN[C@H]4CCOC4)nc3c2)c2ccccc2c1 [P-0671, 4-(4-((1R,5S)-3,8-diazabicyclo[3.2.1]octan-3-yl)-2-((((S)-tetrahydrofuran-3-yl)amino)methyl)quinazolin-7-yl)naphthalen-2-ol] | 0.0001 to 10 | 10 to 100 | – | – |
| CN1CCC[C@H]1COc1nc(N2C[C@H]3CC[C@@H](C2)N3)c2ccc(-c3cc(N)nc4ccccc34)c(F)c2n1 [P-0760, 4-(4-((1R,5S)-3,8-diazabicyclo[3.2.1]octan-3-yl)-8-fluoro-2-(((S)-1-methylpyrrolidin-2-yl)methoxy)quinazolin-7-yl)quinolin-2-amine] | 0.0001 to 10 | 10 to 100 | – | – |
| CCc1cccc2[nH]cc(-c3ccc4c(N5C[C@H]6CC[C@@H](C5)N6)nc(OCC56CCCN5CCC6)nc4c3)c12 [P-0698, 4-((1R,5S)-3,8-diazabicyclo[3.2.1]octan-3-yl)-7-(4-ethyl-1H-indol-3-yl)-2-((tetrahydro-1H-pyrrolizin-7a(5H)-yl)methoxy)quinazoline] | 0.0001 to 10 | 10 to 100 | – | – |
| Oc1cc(-c2ccc3c(N4C[C@H]5CC[C@@H](C4)N5)nc(CNC4CC4)nc3c2)c2ccccc2c1 [P-0673, 4-(4-((1R,5S)-3,8-diazabicyclo[3.2.1]octan-3-yl)-2-((cyclopropylamino)methyl)quinazolin-7-yl)naphthalen-2-ol] | 0.0001 to 10 | 10 to 100 | – | – |
| Fc1c(-c2c[nH]c3cccc(F)c23)ccc2c(N3C[C@H]4CC[C@@H](C3)N4)nc(OCC34CCCN3CCC4)nc12 [P-0764, 4-((1R,5S)-3,8-diazabicyclo[3.2.1]octan-3-yl)-8-fluoro-7-(4-fluoro-1H-indol-3-yl)-2-((tetrahydro-1H-pyrrolizin-7a(5H)-yl)methoxy)quinazoline] | 0.0001 to 10 | 0.0001 to 10 | – | – |
| Oc1cc(-c2ccc3c(N4CC5CCC(C4)N5)nc(CN[C@@H]4CCC[C@H]4O)nc3c2)c2ccccc2c1 [P-0672, 4-(4-((1R,5S)-3,8-diazabicyclo[3.2.1]octan-3-yl)-2-((((1R,2R)-2-hydroxycyclopentyl)amino)methyl)quin-azolin-7-yl)naphthalen-2-ol] | 0.0001 to 10 | 10 to 100 | – | – |
| CC(=O)NC(C)(C)COc1nc(N2C[C@H]3CC[C@@H](C2)N3)c2ccc(-c3cc(O)cc4ccccc34)c(F)c2n1 [P-0717, N-(1-((4-((1R,5S)-3,8-diazabicyclo[3.2.1]octan-3-yl)-8-fluoro-7-(3-hydroxynaphthalen-1-yl)quinazolin-2-yl)oxy)-2-methylpropan-2-yl)acetamide] | 0.0001 to 10 | 10 to 100 | – | – |
| CN1CCC[C@H]1COc1nc(N2C[C@H]3CC[C@@H](C2)N3)c2ccc(-c3nccc4ccc(F)cc34)c(F)c2n1 [P-0781, 4-((1R,5S)-3,8-diazabicyclo[3.2.1]octan-3-yl)-8-fluoro-7-(7-fluoroisoquinolin-1-yl)-2-(((S)-1-methylpyrrolidin-2-yl)methoxy)quinazoline] | 10 to 100 | 100 to 1000 | – | – |
| CN(C)CCOc1nc(N2C[C@H]3CC[C@@H](C2)N3)c2ccc(-c3cc(O)cc4ccccc34)cc2n1 [P-0023, 4-(4-((1R,5S)-3,8-diazabicyclo[3.2.1]octan-3-yl)-2-(2-(dimethylamino)ethoxy)quinazolin-7-yl)naphthalen-2-ol] | 0.0001 to 10 | 10 to 100 | P-0023 is about 57 times more potent than Compound 149 in WO 2017/172979. | 0.29 |
| Oc1cc(-c2ccc3c(N4C[C@H]5CC[C@@H](C4)N5)nc(OCC(F)F)nc3c2F)c2ccccc2c1 [P-0749, 4-(4-((1R,5S)-3,8-diazabicyclo[3.2.1]octan-3-yl)-2-(2,2-difluoroethoxy)-8-fluoroquinazolin-7-yl)naphthalen-2-ol] | 0.0001 to 10 | 10 to 100 | – | – |
| Fc1c(-c2c[nH]c3cccc(CC4CC4)c23)ccc2c(N3C[C@H]4CC[C@@H](C3)N4)nc(OCC34CCCN3CCC4)nc12 [P-0653, 4-((1R,5S)-3,8-diazabicyclo[3.2.1]octan-3-yl)-7-(4-(cyclopropylmethyl)-1H-indol-3-yl)-8-fluoro-2-((tetrahydro-1H-pyrrolizin-7a(5H)-yl)methoxy)quinazoline] | 0.0001 to 10 | 0.0001 to 10 | – | – |
| CN1CCC[C@H]1COc1nc(N2C[C@H]3CC[C@@H](C2)N3)c2cc(F)c(-c3c[nH]c4cc(Cl)ccc34)c(F)c2n1 [P-0796, 4-((1R,5S)-3,8-diazabicyclo[3.2.1]octan-3-yl)-7-(6-chloro-1H-indol-3-yl)-6,8-difluoro-2-(((S)-1-methylpyrrolidin-2-yl)methoxy)quinazoline] | 0.0001 to 10 | 100 to 1000 | – | – |
| Fc1ccc2[nH]cc(-c3ccc4c(N5C[C@H]6CC[C@@H](C5)N6)nc(OCC56CCCN5CCC6)nc4c3F)c2c1Cl [P-0678, 4-((1R,5S)-3,8-diazabicyclo[3.2.1]octan-3-yl)-7-(4-chloro-5-fluoro-1H-indol-3-yl)-8-fluoro-2-((tetrahydro-1H-pyrrolizin-7a(5H)-yl)methoxy)quinazoline] | 0.0001 to 10 | 0.0001 to 10 | – | – |
